“And” between values parts separate entries of the source, which are not always exact repeats. Identical values can stand only once.

Holding throughout (assay type): cell-based, human
Experiment [1] concerns ferritin-H subunit synthesis in astrocytoma (U373MG) cells. The experiment in a line: Ferritin-H subunit synthesis, astrocytoma cells. The conditions noted are these: 0.5 ng/ml, 16 hrs. The protocol: (§1) Primary human astrocytes were prepared by trypsinization of human fetal brain tissue by a previously described method (Das, et al., Neuron 14; 447 (1995)). Cells were seeded onto poly-L-lysine (10 μg/ml) coated plates and were grown to 70% confluence in DMEM medium, (low glucose) supplemented with 10% fetal bovine serum. In order to eliminate microglia, the cultures were treated with 5 mM H-Leu-O-methylester (Guilian, J. Neurosci. Res. 18:155 (1987)). For immunofluorescence, cells were replated at a density of 100,000 cells per 60-mm petri dish on poly-L-lysine coated glass coverslips and grown for 24 hours in 0.5 ml of medium to allow the cells to attach. The presence of glial fibrillary acidic protein (GFAP) was detected by immunofluorescent staining of formaldehyde fixed cells using a 1:10 dilution of rabbit IgG1 antibody specific for human GFAP. Primary GFAP-specific antibody was added to the coverslips for 30 minutes at room temperature in phosphate buffered saline and 10% goat serum. The secondary antibodies used were goat anti-rabbit IgG conjugated to fluorescein isothiocyanate at a dilution of 1:100 (Boehringer). Fluorescence microscopy scored the cells used in the metabolic experiments as 95% pure astrocytes. […] The U373MG astrocytoma cell line was cultured on 100 mm uncoated dishes to 60-80% confluence in DMEM medium supplemented with 10% fetal bovine serum. […]

The subject of experiment [2] is L-ferritin synthesis in astrocytoma (U373MG) cells. The experiment in a line: L-ferritin synthesis, astrocytoma cells. The conditions noted are these: 0.5 ng/ml, 16 hrs. The protocol: as §1
The subject of experiment [3] is APP mRNA 5′ UTR (pSV2(APP)CAT reporter). The experiment in a line: CAT reporter activity in pSV2(APP)CAT-transfected astrocytoma cells. The settings on record: for increase in CAT activity, maximal: pSV2(APP)CAT-transfected astrocytoma cells. How it is done: The pSV2(APP)CAT construct contains the APP gene 5′ UTR in between the SmaI and the NruI sites (+52 nt and +142 nt from the 5′ cap site respectively). pSV2(APP)CAT was prepared by two steps of subcloning. (1) A 3 kb SmaI-HindIII fragment containing the APP gene, including the coding region and a segment of the 3′ UTR was subcloned into compatible StuI-HindIII sites unique to the 5′ UTR of the CAT gene in the pSV2CAT expression vector. (2) The APP gene fragment in between the NruI and HindIII sites was removed from the construct. The restriction sites were then blunt-ended and religated. In the pSV2(APP)CAT transfectants, 90 nt of the APP gene 5′ UTR were expressed as part of a chimeric […] 5′ leader in the 1.5 kb APP/CAT transcript. The pSV2CAT construct contains the 5′ end of the CAT gene inserted into the unique polylinker site in pBluescript. A 250 nt HindIII/EcoRI fragment from the CAT gene in pSV2CAT was subcloned into the pBS vector (Stratagene). The CAT gene fragment codes for 36 nt of the CAT gene 5′ UTR and 218 bp of the 5′ end of the coding sequence of the CAT gene.
Astrocytoma and neuroblastoma cells were transfected with pSV2CAT or pSV2(APP)CAT by lipofection. Briefly, lipofectamine reagent (Boehringer) was added to DMEM (without serum) and allowed to sit 30 minutes at room temperature. Plasmids (10 μg) in an equal volume of DMEM were then added, and, after sitting for 45 minutes at room temperature, the lipid/DNA solution was added to 60% confluent cells on 100×20 mm cell culture plates. After 4 hours, this solution was removed, and the cells were washed twice in DMEM (without serum). Fresh DMEM medium (containing 10% fetal calf serum) was added. At this time, treatments were administered which included: (1) 0.5 ng/ml IL-1α; (2) 0.5 ng/ml IL-1β; (3) 5 μM Fe2TF (holo-transferrin); and (4) unstimulated controls. […]
After harvesting, cells were resuspended in 100 μl 0.25 M Tris, pH 7.8, and subjected to three cycles of freezing (liquid nitrogen) and […] (37° C.) to lyse cells. […] Protein concentration was determined by a Biorad assay, and exactly 20 μg of lysate was added to a CAT reaction mix containing 50 μl 1M Tris, pH 7.8, 20 μl acetylcoenzyme-A (3.5 mg/ml) and […] ^14C-labeled chloramphenicol (25 mCi/ml). […] For quantitative analysis, the areas on the TLC plates which aligned with dots on the film were excised and the radioactivity was counted in 5 ml of scintillation cocktail (Econofluor) using a scintillation counter (Hewlett Packard). In some experiments, CAT activity was measured by counting the amount of CAT reaction product diffusing into liquid scintillation fluid as described previously (Rogers, et al., Nucl. Acid Res. 22:2678 (1994)). […]

For the substance interleukin-1α [IL-1α], the “enhanced rate of ferritin-H subunit synthesis” value in experiment [1] was determined as 5 fold. Further, in experiment [2], the “enhanced rate of L-ferritin synthesis” value amounted to 2 fold. For the same substance, the “increase in CAT activity, average” value in experiment [3] (pSV2(APP)CAT transfectants, matching experiments, average) stood at 2.3 fold. For the same substance, the “increase in CAT activity, maximal” value in experiment [3] was 3 fold and 4 fold.
As to interleukin-1β [IL-1β], the “enhanced rate of ferritin-H subunit synthesis” value in experiment [1] was determined as 5 fold. In experiment [2], the “enhanced rate of L-ferritin synthesis” value worked out at 2 fold. In addition, the “enhancement of CAT activity, parallel transfection” value in experiment [3] (pSV2(APP)CAT transfectants, parallel to the pSV2CAT transfection) was found to be 3 fold. Also, the “increase in CAT activity, maximal” value in experiment [3] amounted to 4 fold.

(Values after US6849405B2, “Translation enhancer element of the human amyloid precursor protein gene” (The Brigham and Women's Hospital, Inc., priority 1997, dated 2005).)
